# Counter-ions that a name gives are not always drawn.
# Columns and labels:
# [1] = target: T1, recombinant 11β-HSD1 protein (Homo sapiens, UniProt P28845); assay: 11β-HSD1 SPA (Scintillation Proximity Assay) enzyme inhibition test, 384-well format; assay type: biochemical; conditions: 3H-cortisone and NADPH; cortisol formed measured by SPA; read-out: IC50 (concentration which inhibits 50% of the activity of 11β-HSD1)
# T1 construct: made in house; host or cells: Saccharomyces cerevisiae
# Source text: The compounds according to the invention formed the subject of pharmacological tests which make it possible to determine their inhibiting effect on the 11β-HSD1 enzyme, which is an enzyme which is involved in the metabolism of lipids or the metabolism of glucose.
# These tests consisted in measuring the in vitro inhibiting activity of the compounds of the invention by virtue of an SPA (Scintillation Proximity Assay) test in 384-well format. The recombinant 11β-HSD1 protein was produced in the yeast S. cerevisiae. The reaction was carried out by incubating the enzyme in the presence of ^3H-cortisone and of NADPH, in the absence or in the presence of an increasing concentration of inhibitor. SPA beads coupled to an antimouse antibody, which are preincubated with anticortisol antibody, made it possible to measure the amount of cortisol formed during the reaction.
# The inhibiting activity with regard to the enzyme 11β-HSD1 is given by the concentration which inhibits 50% of the activity of 11β-HSD1 (IC50).
# 11βHSD1 in the eyes = target: T2, 11βHSD1 in the eyes (Homo sapiens, UniProt P28845); conditions: healthy volunteers, after treating for seven days; cited from earlier work
# T2 construct: host or cells: eyes of healthy volunteers (in vivo)
# T2 sequence (P28845 whole entry): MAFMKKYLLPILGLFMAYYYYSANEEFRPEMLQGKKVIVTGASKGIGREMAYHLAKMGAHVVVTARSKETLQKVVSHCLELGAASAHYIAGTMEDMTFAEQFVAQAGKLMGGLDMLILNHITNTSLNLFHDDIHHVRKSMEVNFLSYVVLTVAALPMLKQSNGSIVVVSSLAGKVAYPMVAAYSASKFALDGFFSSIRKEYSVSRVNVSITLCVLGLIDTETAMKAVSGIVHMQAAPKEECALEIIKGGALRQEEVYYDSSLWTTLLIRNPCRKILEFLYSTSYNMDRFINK
# T1 sequence (P28845 whole entry, species assumed): as the sequence (P28845 whole entry) above
melting point [°C],IC50 [1] [nM],SMILES,reduction of the intraocular pressure (IOP) (11βHSD1 in the eyes) [%]
174,57,N#Cc1cccc(CN2CCN(C(=O)N3CCC(c4cn[nH]c4)C3)c3ccccc32)c1 (centres unmarked) [compound 162],–
191,–,CCCCN1CCN(C(=O)N2CCC(c3cccnc3)C2)c2ccccc21.Cl (centres unmarked),–
121,–,CCCN1CCN(C(=O)N2CCC(c3cccnc3)C2)c2ccccc21 (centres unmarked) (as salt: HCl) [compound 101],–
201,–,CC(=O)N1CCN(C(=O)N2CCC(c3cccnc3)C2)c2ccccc21.Cl (centres unmarked),–
60 to 90,–,Cl.O=C(N1CCC(c2cccnc2)C1)N1CCOc2ccccc21 (centres unmarked),–
–,90,CCCN1CCN(C(=O)N2CCC(c3cccnc3)C2)c2ccccc21 (centres unmarked) [compound 101],–
181,–,CN(C)C(=O)N1CCN(C(=O)N2CCC(c3cccnc3)C2)c2ccccc21.Cl (centres unmarked),–
273,–,Cl.O=C(N1CCC(c2cccnc2)C1)N1CCOc2ccc(CO)cc21 (centres unmarked),–

# The next lines start with the compound.
SMILES,melting point [°C],IC50 [1] [nM],reduction of the intraocular pressure (IOP) (11βHSD1 in the eyes) [%]
"CS(=O)(=O)c1ccc(CN2CCN(C(=O)N3CCC(c4cn[nH]c4)C3)c3ccccc32)cc1 (centres unmarked) [compound 161, [4-(4-(Methanesulfonyl)benzyl)-3,4-dihydro-2H-quinoxalin-1-yl][3-(1H-pyrazol-4-yl)pyrrolidin-1-yl]methanone]",239,–,–
COc1cc(N2CCN(C(=O)N3CCC(c4cn[nH]c4)C3)c3ccccc32)ccc1C(=O)NC1CC1 (centres unmarked) [compound 78],–,39,–
N#CC1(c2ccccc2)CCN(C(=O)N2CCCc3ccccc32)CC1,53 to 59,–,–
"O=C(N1CCC2(C=Cc3ccccc32)CC1)N1CCCc2ccccc21 [compound 15, 1′-(3,4-Dihydroquinolin-1(2H)-ylcarbonyl)spiro[indene-1,4′-piperidine]]",130 to 133,–,–
O=C(N1CCC2(CCCc3ccccc32)CC1)N1CCCc2ccccc21 [compound 18],52 to 65,43,–
CC1(C)[C@@H](OC(=O)CCC(=O)O)CC[C@]2(C)[C@H]3C(=O)C=C4[C@@H]5C[C@@](C)(C(=O)O)CC[C@]5(C)CC[C@@]4(C)[C@]3(C)CC[C@@H]12 [carbenoxolone],–,–,18
NC(=O)c1ccc(N2CCN(C(=O)N3CCC(c4cn[nH]c4)C3)c3ccccc32)cn1 (centres unmarked) [compound 188],90,130,–
"COc1cc(N2CCN(C(=O)N3CCC(c4cn[nH]c4)C3)c3ccccc32)ccc1C(=O)NC1CC1 (centres unmarked) [compound 178, N-Cyclopropyl-2-methoxy-4-{4-[3-(1H-pyrazol-4-yl)pyrrolidine-1-carbonyl]-3,4-dihydro-2H-quinoxalin-1-yl}benzamide]",100,–,–
"O=C(N1CCC(c2nc(-c3c(Cl)cccc3Cl)no2)CC1)N1CCCc2ccccc21 [compound 25, 1-({4-[3-(2,6-Dichlorophenyl)-1,2,4-oxadiazol-5-yl]piperidin-1-yl}carbonyl)-1,2,3,4-tetrahydroquinoline]",63 to 68,–,–
"O=C(NN1CCCCC1)c1ccc(N2CCN(C(=O)N3CCC(c4cn[nH]c4)C3)c3ccccc32)cc1 (centres unmarked) [compound 172, N-(Piperidin-1-yl)-4-{4-[3-(1H-pyrazol-4-yl)pyrrolidine-1-carbonyl]-3,4-dihydro-2H-quinoxalin-1-yl}benzamide]",251,–,–
"Cl.O=C(N1CCC(c2ccncc2)CC1)N1CCCc2ccccc21 [compound 4, 1-[(4-(Pyridin-4-yl)piperidin-1-yl)carbonyl]-1,2,3,4-tetrahydroquinoline Hydrochloride]",198,115,–

# From US7947834B2, “Substituted quinoxalines, their preparation and their therapeutical use as 11βHSD1 modulators” (Sanofi-Aventis, priority 2006, dated 2011)
